From the supplement of paper PMC4862054

Key:
Details in all cases: incubation time: 72 h
[1] = system: MFM-223; test: normalised viability (% of control), CellTiter-Blue; higher = more viable cells (about 100 = DMSO control)
In short: (§1)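 Compound dissolved in 5 µl medium was pre-loaded into 384-well plates, and breast cancer cell lines in 20 µl suspension were seeded on top and incubated 72 h. After adding 2.5 µl CellTiter-Blue reagent for 2 h at 37 °C, fluorescence was read at 560/590 nm. Plates were normalised to vehicle (100) and a positive kill control (0), with Z'-factor quality control. Each value is normalised viability at a single listed concentration from the series.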

[2] = system: HCC1599; test: as above
In short: as §1

[3] = system: HDQ-P1; test: as above
In short: as §1

[4] = system: BT-474; test: as above
In short: as §1

[5] = system: Hs578T; test: as above
In short: as §1

[6] = system: MDA-MB-436; test: as above
In short: as §1

[7] = system: BT-549; test: as above
In short: as §1

[8] = system: CAL-51; test: as above
In short: as §1

[9] = system: HCC1143; test: as above
In short: as §1

[10] = system: SK-BR-3; test: as above
In short: as §1

[11] = system: CAL-148; test: as above
In short: as §1

[12] = system: DU-4475; test: as above
In short: as §1

[13] = system: HCC1937; test: as above
In short: as §1

[14] = system: MDA-MB-453; test: as above
In short: as §1

[15] = system: MDA-MB-231; test: as above
In short: as §1

[16] = system: CAL-85-1; test: as above
In short: as §1

[17] = system: MDA-MB-468; test: as above
In short: as §1

[18] = system: HCC1599; test: normalised response (% of control), CellTox Green; higher = less cell death (100 = DMSO, 0 = benzethonium chloride kill control)
In short: (§2)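 The table gives the normalised signal for a single concentration in each entry. Breast cancer cell lines were seeded (20 µl suspension) into 384-well plates holding compound at 5 concentrations in 10-fold steps over a compound-specific 10,000-fold range and incubated 72 h, then read for CellTox Green fluorescence (485/520 nm) and CellTiter-Glo luminescence. Normalisation on each plate used 0.1 % DMSO (100) and a positive kill control (0).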

[19] = system: HDQ-P1; test: as above
In short: as §2

[20] = system: MCF-10A; test: as above
In short: as §2

[21] = system: HCC1143; test: as above
In short: as §2

[22] = system: CAL-148; test: as above
In short: as §2

[23] = system: DU-4475; test: as above
In short: as §2

[24] = system: CAL-85-1; test: as above
In short: as §2

[25] = system: MDA-MB-468; test: as above
In short: as §2

Work on `CCNC(=O)CCC/C=C\C[C@@H]1[C@@H](/C=C/[C@@H](O)CCc2ccccc2)[C@H](O)C[C@@H]1O` [Bimatoprost] yielded a normalised viability ([1]; 5.5 nM) of 112%, a normalised viability ([1]; 550 nM) of 104% and a normalised viability ([1]; 5500 nM) of 96.7%. For the same compound, the normalised viability ([2]; 5.5 nM) was 111%, the normalised viability ([2]; 550 nM) was 111% and the normalised viability ([2]; 5500 nM) was 112%. The normalised viability ([3]; 1.65 nM) was 111%, the normalised viability ([3]; 16.5 nM) was 103% and the normalised viability ([3]; 55 nM) was 102%. It also gave a normalised viability ([4]; 5.5 nM) of 112%, a normalised viability ([4]; 550 nM) of 106% and a normalised viability ([4]; 5500 nM) of 127%. It also gave a normalised viability ([5]; 5.5 nM) of 110%, a normalised viability ([5]; 550 nM) of 116% and a normalised viability ([5]; 5500 nM) of 98.1%. The normalised viability ([6]; 5.5 nM) was 111%, the normalised viability ([6]; 550 nM) was 111% and the normalised viability ([6]; 5500 nM) was 103%. It also gave a normalised viability ([7]; 5.5 nM) of 102%, a normalised viability ([7]; 550 nM) of 109% and a normalised viability ([7]; 5500 nM) of 85.5%. The normalised viability ([8]; 1.65 nM) was 124%, the normalised viability ([8]; 16.5 nM) was 114% and the normalised viability ([8]; 55 nM) was 112%. The normalised viability ([9]; 5.5 nM) was 102%, the normalised viability ([9]; 550 nM) was 104% and the normalised viability ([9]; 5500 nM) was 94.2%. The normalised viability ([10]; 5.5 nM) was 98.7%, the normalised viability ([10]; 550 nM) was 110% and the normalised viability ([10]; 5500 nM) was 97%. It also gave a normalised viability ([11]; 1.65 nM) of 92.6%, a normalised viability ([11]; 16.5 nM) of 90.9% and a normalised viability ([11]; 55 nM) of 95.2%. It also gave a normalised viability ([12]; 1.65 nM) of 112%, a normalised viability ([12]; 16.5 nM) of 99.4% and a normalised viability ([12]; 55 nM) of 95.5%. It also gave a normalised viability ([13]; 5.5 nM) of 106%, a normalised viability ([13]; 550 nM) of 99.9% and a normalised viability ([13]; 5500 nM) of 89.6%. The normalised viability ([14]; 1.65 nM) was 116%, the normalised viability ([14]; 16.5 nM) was 91.7% and the normalised viability ([14]; 55 nM) was 92.5%. It also gave a normalised viability ([15]; 5.5 nM) of 100%, a normalised viability ([15]; 550 nM) of 97.2% and a normalised viability ([15]; 5500 nM) of 97.6%. The normalised viability ([16]; 1.65 nM) was 97.1%, the normalised viability ([16]; 16.5 nM) was 92.5% and the normalised viability ([16]; 55 nM) was 101%. The normalised viability ([17]; 5.5 nM) was 97.1%, the normalised viability ([17]; 550 nM) was 123% and the normalised viability ([17]; 5500 nM) was 111%.
`COc1cc(Nc2c(C#N)cnc3cc(OCCCN4CCN(C)CC4)c(OC)cc23)c(Cl)cc1Cl` [Bosutinib] was tested, and the normalised viability ([1]; 10 nM) was 100%, the normalised viability ([1]; 1000 nM) was 80.8% and the normalised viability ([1]; 10000 nM) was 36.8%. For the same compound, the normalised viability ([2]; 10 nM) was 131%, the normalised viability ([2]; 1000 nM) was 93.3% and the normalised viability ([2]; 10000 nM) was 51.7%. For the same compound, the normalised viability ([3]; 3 nM) was 109%, the normalised viability ([3]; 30 nM) was 121% and the normalised viability ([3]; 100 nM) was 104%. For the same compound, the normalised viability ([4]; 10 nM) was 113%, the normalised viability ([4]; 1000 nM) was 94.6% and the normalised viability ([4]; 10000 nM) was 6.35%. It also gave a normalised viability ([5]; 10 nM) of 120%, a normalised viability ([5]; 1000 nM) of 98.2% and a normalised viability ([5]; 10000 nM) of 27.4%. The normalised viability ([6]; 10 nM) was 111%, the normalised viability ([6]; 1000 nM) was 95% and the normalised viability ([6]; 10000 nM) was 16.8%. For the same compound, the normalised viability ([7]; 10 nM) was 91.9%, the normalised viability ([7]; 1000 nM) was 95.4% and the normalised viability ([7]; 10000 nM) was 6.38%. The normalised viability ([8]; 3 nM) was 115%, the normalised viability ([8]; 30 nM) was 114% and the normalised viability ([8]; 100 nM) was 120%. It also gave a normalised viability ([9]; 10 nM) of 83.8%, a normalised viability ([9]; 1000 nM) of 73% and a normalised viability ([9]; 10000 nM) of 48.9%. It also gave a normalised viability ([10]; 10 nM) of 99%, a normalised viability ([10]; 1000 nM) of 86.3% and a normalised viability ([10]; 10000 nM) of 1.28%. For the same compound, the normalised viability ([11]; 3 nM) was 77.2%, the normalised viability ([11]; 30 nM) was 92.3% and the normalised viability ([11]; 100 nM) was 87.6%. For the same compound, the normalised viability ([12]; 3 nM) was 105%, the normalised viability ([12]; 30 nM) was 108% and the normalised viability ([12]; 100 nM) was 86.5%. The normalised viability ([13]; 10 nM) was 106%, the normalised viability ([13]; 1000 nM) was 84.9% and the normalised viability ([13]; 10000 nM) was 8.95%. For the same compound, the normalised viability ([14]; 3 nM) was 120%, the normalised viability ([14]; 30 nM) was 107% and the normalised viability ([14]; 100 nM) was 105%. The normalised viability ([15]; 10 nM) was 98.9%, the normalised viability ([15]; 1000 nM) was 142% and the normalised viability ([15]; 10000 nM) was 2.42%. The normalised viability ([16]; 3 nM) was 92.2%, the normalised viability ([16]; 30 nM) was 111% and the normalised viability ([16]; 100 nM) was 96.8%. For the same compound, the normalised viability ([17]; 10 nM) was 104%, the normalised viability ([17]; 1000 nM) was 95.2% and the normalised viability ([17]; 10000 nM) was 14.5%.
For `CCN(CC)CCCC(C)Nc1ccnc2cc(Cl)ccc12` (centres undefined) [Chloroquine], the normalised viability ([1]; 0.99 nM) was 101%, the normalised viability ([1]; 99 nM) was 106% and the normalised viability ([1]; 990 nM) was 94.2%. The normalised viability ([2]; 0.99 nM) was 100%, the normalised viability ([2]; 99 nM) was 85.6% and the normalised viability ([2]; 990 nM) was 119%. For the same compound, the normalised viability ([3]; 0.297 nM) was 107%, the normalised viability ([3]; 2.97 nM) was 113% and the normalised viability ([3]; 9.9 nM) was 116%. For the same compound, the normalised viability ([4]; 0.99 nM) was 109%, the normalised viability ([4]; 99 nM) was 108% and the normalised viability ([4]; 990 nM) was 111%. It also gave a normalised viability ([5]; 0.99 nM) of 92%, a normalised viability ([5]; 99 nM) of 106% and a normalised viability ([5]; 990 nM) of 93.1%. It also gave a normalised viability ([6]; 0.99 nM) of 133%, a normalised viability ([6]; 99 nM) of 104% and a normalised viability ([6]; 990 nM) of 141%. For the same compound, the normalised viability ([7]; 0.99 nM) was 88.3%, the normalised viability ([7]; 99 nM) was 95.6% and the normalised viability ([7]; 990 nM) was 108%. It also gave a normalised viability ([8]; 0.297 nM) of 94%, a normalised viability ([8]; 2.97 nM) of 92.9% and a normalised viability ([8]; 9.9 nM) of 91.7%. The normalised viability ([9]; 0.99 nM) was 97.8%, the normalised viability ([9]; 99 nM) was 89.2% and the normalised viability ([9]; 990 nM) was 93.4%. For the same compound, the normalised viability ([10]; 0.99 nM) was 103%, the normalised viability ([10]; 99 nM) was 93.4% and the normalised viability ([10]; 990 nM) was 101%. For the same compound, the normalised viability ([11]; 0.297 nM) was 88.5%, the normalised viability ([11]; 2.97 nM) was 89.1% and the normalised viability ([11]; 9.9 nM) was 89.4%. The normalised viability ([12]; 0.297 nM) was 106%, the normalised viability ([12]; 2.97 nM) was 89.8% and the normalised viability ([12]; 9.9 nM) was 112%. It also gave a normalised viability ([13]; 0.99 nM) of 100%, a normalised viability ([13]; 99 nM) of 111% and a normalised viability ([13]; 990 nM) of 100%. It also gave a normalised viability ([14]; 0.297 nM) of 108%, a normalised viability ([14]; 2.97 nM) of 111% and a normalised viability ([14]; 9.9 nM) of 105%. It also gave a normalised viability ([15]; 0.99 nM) of 113%, a normalised viability ([15]; 99 nM) of 129% and a normalised viability ([15]; 990 nM) of 98.7%. The normalised viability ([16]; 0.297 nM) was 95.5%, the normalised viability ([16]; 2.97 nM) was 90% and the normalised viability ([16]; 9.9 nM) was 97%. The normalised viability ([17]; 0.99 nM) was 107%, the normalised viability ([17]; 99 nM) was 115% and the normalised viability ([17]; 990 nM) was 98.4%.
In the case of `Cc1cn(-c2cc(NC(=O)c3ccc(C)c(Nc4nccc(-c5cccnc5)n4)c3)cc(C(F)(F)F)c2)cn1` [Nilotinib] (10000 nM), the normalised response [18] is reported as 105%, the normalised response [19] is reported as 108% and the normalised response [20] is reported as 98.3%. The normalised response [21] was 104%, the normalised response [22] was 98.3% and the normalised response [23] was 103%. The normalised response [24] was 88.6% and the normalised response [25] was 117%.
With `O=C(CCCCCCC(=O)Nc1ccccc1)NO` [Vorinostat] (10000 nM) the normalised response [18] was 81.9%, the normalised response [19] was 103% and the normalised response [20] was 98.4%. The normalised response [21] was 42.1%, the normalised response [22] was 45.5% and the normalised response [23] was 76%. The normalised response [24] was 51.7% and the normalised response [25] was 25.7%.
